Source: patent US8088402B2, “Bone growth compositions and methods” (Neuropro Technologies, Inc., priority 2002, dated 2012)

Test system: male Sprague Dawley rats
Experiment: Manual palpation scoring of spinal fusion strength after decortication in rats
Assay type: in vivo, rat
Procedure: Twelve male Sprague Dawley rats, each weighing approximately 500 grams were selected. Each rat underwent anesthesia with Nembutal (50 mg/kg i.p.). Incision over two regions, the thoracic and lumbar, of the spine in each animal were made. Each incision allowed for the exposure of spinous processes and lamina of at east 2 levels per region. Decortication was carried out at each thoracic and lumbar region using a high-speed drill. Over the decorticated levels, nothing, gelmatrix, gelmatrix plus 8 mg lovastatin or gelmatrix plus 16 mg lovastatin were added. 8 mg I.M. of antibiotic Cefazolin™ was subcutaneously administered to each rat.
For purposes of analysis, the rats were divided into three groups. Group A consisting of rats 1-4 was treated with nothing or gelmatrix. Group B consisting of rats 5-8 was treated with gelmatrix and 8 mg of lovastatin. And, group C consisting of rats 9-12 was treated with gelmatrix and 16 mg of lovastatin. The following is a summary of the data:
After en bloc removal, two observers manually palpated the spine of each rat in a blinded fashion. Palpation was made by flexion and extension at the level of the arthrodesis and at the adjacent levels proximally and distally. […] Each motion segment was graded on a qualitative scale (0-3) based on the strength of the fusion. A solid fusion having no motion was given a score of 3. […] No fusion was scored as a 0. […]

Q: With `CC[C@H](C)C(=O)O[C@H]1C[C@@H](C)C=C2C=C[C@H](C)[C@H](CC[C@@H]3C[C@@H](O)CC(=O)O3)[C@H]21` [lovastatin] as the molecule, how does the “rats treated with lovastatin that had a stronger fusion at the treated region than rats not treated” value (gelmatrix plus 8 mg or 16 mg lovastatin over decorticated thoracic or lumbar levels, blinded manual palpation, scale 0-3) read?
A: seventy five

Q: And the “dose dependence of fusion grades (palpation score 0-3)” value (gelmatrix plus 8 mg vs 16 mg lovastatin, FIG. 11)?
A: dose dependent
